The Ki is a measure of affinity in units of concentration, obtained from inhibition or displacement. By EC50 is commonly meant the concentration giving half of the maximal effect.

These results are taken from patent publication US20130178413A1, “HCV NS3 PROTEASE INHIBITORS” (priority 2010, published 2013).

Read-outs that look alike come from different tables or passages of the source.

In assay [1] the target is NS3/4A protease gt 1b (Hepatitis C virus genotype 1b, UniProt P26663). In words: HCV NS3 protease time-resolved fluorescence (TRF) assay, NS3/4A inhibitory activity (Ki), gt 1b. It counts as biochemical. The note with it: genotype 1b NS3/4A; read-out: Enzyme Activity gt 1b Ki. The method, then:
(§1) The HCV NS3 protease inhibitory activity of the present compounds may be tested using assays known in the art. One such assay is HCV NS3 protease time-resolved fluorescence (TRF) assay as described below and in International Patent Application Publication WO2006/102087. Other examples of such assays are described in e.g., International Patent Application Publication WO2005/046712. HCV NS3 protease inhibitors, such as those described herein have a Ki less than 50 μM, such as less than 10 μM, and less than 100 nM. Ki is determined by an NS3 protease assay. The assay is performed in a final volume of 100 μl in assay buffer containing 50 mM HEPES, pH 7.5, 150 mM NaCl, 15% glycerol, 0.15% TRITON X-100, 10 mM DTT, and 0.1% PEG 8000. NS3 protease is pre-incubated with various concentrations of inhibitors in DMSO for 30 minutes. The reaction is initiated by adding the TRF peptide substrate (final concentration 100 nM). NS3 mediated hydrolysis of the substrate is quenched after 1 hour at room temperature with 100 μl of 500 mM MES, pH 5.5. Product fluorescence is detected using either a VICTOR V2 or FUSION fluorophotometer (Perkin Elmer Life and Analytical Sciences) with excitation at 340 nm and emission at 615 nm with a 400 μs delay. Testing concentrations of different enzyme forms are selected to result in a signal to background ratio (S/B) of 10-30. IC50 values are derived using a standard four-parameter fit to the data. Ki values are derived from IC50 values using the following formula,
(§2) IC50=Ki(1+[S]/KM), Eqn (1),
(§3) where [S] is the concentration of substrate peptide in the reaction and KM is the Michaelis constant. See P. Gallinari et al., 38 BIOCHEM. 5620-32 (1999); P. Gallinari et al., 72 J. VIROL. 6758-69 (1998); M. Taliani et al., 240 ANAL. BIOCHEM. 60-67 (1996).
(§4) One such assay is HCV NS3 protease time-resolved fluorescence (TRF) assay as described below and in Mao et al., Anal Biochem. 373:1-8, 2008 and International Patent Application Publication WO 2006/102087. A NS3 protease assay can be performed, for example, in a final volume of 100 μl assay buffer containing 50 mM HEPES, pH 7.5, 150 mM NaCl, 15% glycerol, 0.15% TRITON X-100, 10 mM DTT, and 0.1% PEG 8000. NS3 and NS4A protease is pre-incubated with various concentrations of inhibitors in DMSO for 30 minutes. The reaction is initiated by adding the TRF peptide substrate (final concentration 100 nM). NS3 mediated hydrolysis of the substrate is quenched after 1 hour at room temperature with 100 μl of 500 mM MES, pH 5.5. Product fluorescence is detected using either a VICTOR V2 or FUSION fluorophotometer (Perkin Elmer Life and Analytical Sciences) with excitation at 340 nm and emission at 615 nm with a 400 μs delay. Testing concentrations of different enzyme forms are selected to result in a signal to background ratio (S/B) of 10-30. IC50 values are derived using a standard four-parameter fit to the data. Ki values are derived from IC50 values using the following formula,
(§5) where [S] is the concentration of substrate peptide in the reaction and KM is the Michaelis constant. See P. Gallinari et al., 38 BIOCHEM. 5620-32 (1999); P. Gallinari et al., 72 J. VIROL. 6758-69 (1998); M. Taliani et al., 240 ANAL. BIOCHEM. 60-67 (1996); Mao et al., Analytical Biochemistry 373: 1-8, 2008. Measuring Compound Inhibitory Potency (Replicon EC50 (nM))

For assay [2], the target named is NS3/4A protease gt 1b A156V (Hepatitis C virus genotype 1b, UniProt P26663, A1182V). The assay is described as follows: HCV NS3 protease time-resolved fluorescence (TRF) assay, NS3/4A inhibitory activity (Ki), gt 1b A156V mutant. It counts as biochemical, hepatitis C virus (HCV). On the procedure:
as §1, §2, §3, §4, §5

Assay [3] addresses NS3/4A protease gt 3a (Hepatitis C virus genotype 3a, UniProt Q81258). In words: HCV NS3 protease time-resolved fluorescence (TRF) assay, NS3/4A inhibitory activity (Ki), gt 3a. It counts as biochemical. Particulars: genotype 3a NS3/4A; read-out: Enzyme Activity gt 3a Ki. The method, then: as §1, §2, §3, §4, §5
In assay [4] the test system is gt 1b Replicon. In words: HCV replicon assay, compound inhibitory potency (Replicon EC50). It counts as cell-based. Particulars: Hepatitis C virus, GT1B. On the procedure:
Measurement of inhibition by compounds was performed using the HCV replicon system. Several different replicons encoding different HCV genotypes or mutations were used. In addition, potency measurements were made using different formats of the replicon assay, including different ways of measurements and different plating formats. See Jan M. Vrolijk et al., A replicons-based bioassay for the measurement of interferons in patients with chronic hepatitis C, 110 J. VIROLOGICAL METHODS 201 (2003); Steven S. Carroll et al., Inhibition of Hepatitis C Virus RNA Replication by 2′-Modified Nucleoside Analogs, 278(14) J. BIOLOGICAL CHEMISTRY 11979 (2003). However, the underlying principles are common to all of these determinations, and are outlined below.
Stable neomycin phosphotransferase encoding replicon-harboring cell lines were used, so all cell lines were maintained under G418 selection prior to the assay. In some cases the cell lines encoded a luciferase:Neor fusion and could be assayed either directly by determination of RNA copy number, or indirectly through measurement of the luciferase activity.
To initiate an assay, replicon cells were plated in the presence of a dilution series of test compound in the absence of G418. Typically, the assays were performed in a 96-well plate format for manual operation, or a 384 well plate in an automated assay. Replicon cells and compound were incubated for 24-48 hours, depending on the assay. At the end of the assay, cells are washed free of media and compound and then lysed. For direct quantitation, RNA levels were measured by ^32P-probe hybridization and protection, or in a TAQMAN based assay and normalized to cellular cyclophilin A RNA levels. In some cases, luciferase activity was measured using a conventional luciferase assay. In all cases EC50 determinations were calculated as a percent of a DMSO control by fitting the data to a four parameter fit function.

The mark [5] stands for this setting: 10% Fetal Bovine Serum, read-out: gt 1b Replicon EC50 10% FBS.
The mark [6] stands for this setting: 50% Normal Human Serum, read-out: gt 1b Replicon EC50 50% NHS.

With `C=C[C@@H]1C[C@]1(NC(=O)[C@@H]1C[C@@H]2CN1C(=O)[C@H](C1CCCC1)NC(=O)O[C@]1(C)C[C@H]1CCCCCc1nc3cccc(OC)c3nc1O2)C(=O)NS(=O)(=O)C1(C)CC1` [Example I-1, (1R,18R,20R,24S,27S)-24-Cyclopentyl-6-methoxy-20-methyl-N-[(1R,2S)-1-({[(1-methylcyclopropyl)sulfonyl]amino}carbonyl)-2-vinylcyclopropyl]-22,25-dioxo-2,21-dioxa-4,11,23,26-tetraazapentacyclo[24.2.1.0^3,12.0^5,10.0^18,20]nonacosa-3,5,7,9,11-pentaene-27-carboxamide], the results for the Ki in assay [1], in assay [2] and in assay [3] were 0.04 nM, 1 nM and 1.6 nM, respectively. Moreover, the EC50 worked out at 2 nM in assay [4] (setting [5]) and 7.6 nM in assay [4] (setting [6]).
For `C=C[C@@H]1C[C@]1(NC(=O)[C@@H]1C[C@@H]2CN1C(=O)[C@H](C1CCCC1)NC(=O)O[C@]1(C)CCC[C@H]1CCCCCc1nc3ccc(OC)cc3cc1O2)C(=O)NS(=O)(=O)C1CC1` [Example I-3, (1R,18R,22R,26S,29S)-26-Cyclopentyl-N-((1R,2S)-1-{[(cyclopropylsulfonyl)amino]carbonyl}-2-vinylcyclopropyl)-7-methoxy-22-methyl-24,27-dioxo-2,23-dioxa-11,25,28-triazapentacyclo[26.2.1.0^3,12.0^5,10.0^18,22]hentriaconta-3(12),4,5,7,9,10-hexaene-29-carboxamide], the Ki turned out to be 0.03 nM in assay [1], 3.3 nM in assay [2] and 0.5 nM in assay [3]. Moreover, the EC50 in assay [4] (setting [5]) is 6 nM; in assay [4] (setting [6]), 23 nM.
Consider `C=C[C@@H]1C[C@]1(NC(=O)[C@@H]1C[C@@H]2CN1C(=O)[C@H](C1CCCC1)NC(=O)O[C@]1(C)C[C@H]1CC/C=C/Cc1c(nc3ccccc3c1O)O2)C(=O)NS(=O)(=O)C1CC1` [Example I-4, (1R,14E,18R,20R,24S,27S)-24-Cyclopentyl-N-((1R,2S)-1-{[(cyclopropylsulfonyl)amino]carbonyl}-2-vinylcyclopropyl)-11-hydroxy-20-methyl-22,25-dioxo-2,21-dioxa-4,23,26-triazapentacyclo[24.2.1.0^3,12.0^5,10.0^18,20]nonacosa-3,5,7,9,11,14-hexaene-27-carboxamide], for which the Ki came out at 0.04 nM in assay [1], 0.9 nM in assay [2] and 0.7 nM in assay [3]. Further, the EC50 in assay [4] (setting [5]) came out at 7 nM; in assay [4] (setting [6]), 17 nM.
As to `C=C[C@@H]1C[C@]1(NC(=O)[C@@H]1C[C@@H]2CN1C(=O)[C@H](C(C)(C)C)NC(=O)O[C@]1(C)C[C@H]1CCC/C=C/c1cccc3c1CN(C3)C(=O)O2)C(=O)NS(=O)(=O)C1CC1` [Example I-5, (1aR,5S8S,10R,19E,23aR)-5-tert-butyl-N-{(1R,2S)-1-[(cyclopropylsulfonyl)carbamoyl]-2-ethenylcyclopropyl}-1a-methyl-3,6,12-trioxo-1a,3,4,5,6,9,10,14,21,22,23,23a-dodecahydro-1H,8H-7,10:13,15-dimethanocycloproa[n][4,13,2,8,11]benzodioxatriazacyclodocosine-8(12H)-carboxamide], the values for the Ki in assay [1], in assay [2] and in assay [3] were 0.02 nM, 1.3 nM and 1 nM, respectively. Moreover, the half-maximal effective concentration (EC50) in assay [4] (setting [5]) came to 3 nM; in assay [4] (setting [6]), 22 nM.
In the case of `C=C[C@@H]1C[C@]1(NC(=O)[C@@H]1C[C@@H]2CN1C(=O)[C@H](C1CCCC1)NC(=O)O[C@@]1(C)C[C@@H]1CC/C=C/Cn1c(nc3cc(Cl)ccc3c1=O)O2)C(=O)NS(=O)(=O)C1CC1` [Example I-25, (1aS,5S,8S,10R,20E,23aS)-14-chloro-5-cyclopentyl-N-{(1R,2S)-1-[(cyclopropylsulfonyl)carbamoyl]-2-ethenylcyclopropyl}-1a-methyl-3,6,17-trioxo-1,1a,3,4,5,6,9, 10,19,22,23,23a-dodecahydro-8H,17H-7,10-methanocyclo propa[18,19][1,10,3,6, 12]dioxatriazacyclo nonadecino[11,12-b]quinazoline-8-carboxamide], the Ki in assay [1] is 0.2 nM; in assay [2], 142 nM; in assay [3], 41 nM.
